The values that follow come from paper PMC3225327 (Journal of Biomedical Science, 2011).

Data set [1] relates to PDE4H. The conditions noted are these: cited from earlier work.
Data set [2] has as its system PDE4L. To be noted: cited from earlier work.
The conditions of data set [3]: cited from earlier work.
Data set [4] deals with xylazine/ketamine-induced anesthesia. Details: method as in PMID 11786486. To be noted: rats; cited from earlier work.
Data set [5] concerns emesis. Further details: method as in PMID 11114405. The conditions noted are these: ferrets; cited from earlier work.
Data set [6] concerns PDE4. As to the kind of experiment: Inhibition of PDE4 activity, two-step procedure and Lineweaver-Burk analysis. The class given is biochemical, guinea pig. On the procedure:
(§1) Activities of PDE1~5 in the homogenate of guinea pig lungs or hearts were measured by a two-step procedure according to the previous method, using cAMP with [^3H]-cAMP or cGMP with [^3H]-cGMP as substrates. […] The reagents and homogenate were mixed on ice, and the reaction was initiated by transferring the mixture to a water bath at 37°C. Following a 30-min incubation, the reaction was stopped by transferring the reaction vessel to a bath of boiling water for 3 min. After cooling on ice, 20 μl of a 1 mg/ml solution of Crotalus atrox snake venom was added to the reaction mixture, and the mixture was incubated at 37°C for 10 min. Unreacted [^3H]-cAMP or [^3H]-cGMP was removed by the addition of 500 μl of a 1-in-1 Tris-HCl (40 mM) buffer suspension of Dowex resin (1 × 8-200) with incubation on ice for 30 min. Each tube was then centrifuged at 3700 g for 2 min, and 150 μl of the supernatant was removed for liquid scintillation counting. […] The total protein in each fraction used was assayed according to a previous method. PDE activities are reported as nmol/mg/min.

Data set [7] relates to high-affinity rolipram-binding sites (HARBSs) of guinea pig brain cell membranes. Put plainly: Displacement of 2 nM [3H]-rolipram from high-affinity rolipram-binding sites (PDE4H). To be noted: 2 nM [3H]-rolipram, 30°C, 1 h; read-out: EC50 (PDE4H) for displacing [3H]-rolipram binding. On the procedure:
When the above-mentioned guinea pigs were sacrificed, the whole brains were removed and homogenized with a glass/Teflon homogenizer (Glas-Col, Terre Haute, IN, USA) in 10 volumes of cold medium (pH 6.5) containing 20 mM Bis-Tris, 2 mM benzamidine, 2 mM EDTA, 50 mM sodium chloride, 0.1 mM PMSF, and 1 mM dithiothreitol. At 4°C, the homogenate was centrifuged at 170 g for 5 min to remove connective tissues and blood vessels. The suspended homogenate was then re-centrifuged at 40,000 g for 30 min to separate the cytosolic and particulate portions. The particulate portion was re-suspended in a suspension at a concentration of 400 mg/ml (wet weight/volume), after washing three times with homogenizing buffer. The particulate portion mainly consisted of cell membranes. […] Briefly, the reaction buffer consisted of 50 mM Tris-HCl and 5 mM MgCl2 (pH 7.5). […] After 1 h, the reaction was terminated by moving the reaction vessel into crushed ice. Then the reaction mixture was transferred onto Whatman GF/B glass-fiber filters, which were soaked in a 0.3% polyethyleneimine solution in a mini-funnel.

The test system of data set [8] is duration of xylazine/ketamine-induced anesthesia. As to the kind of experiment: Xylazine/ketamine-induced anesthesia. The conditions noted are these: 0.25 h before anesthesia. On the procedure: After loss of the righting reflex (i.e., when a mouse remained on its back and no longer spontaneously righted itself to a prone position), the duration of anesthesia was measured until its return as the endpoint.

The test system of data set [9] is PDE4 subtypes (A~D). Further details: method as in PMID 16458289. To be noted: cited from earlier work.
The subject of data set [10] is PDE4. Details: method as in PMID 15476679. The conditions noted are these: cited from earlier work.
The test system of data set [11] is ovalbumin-induced airway inflammation. Further details: method as in PMID 21287361. To be noted: compared with the ovalbumin-induced group; H&E and alcian blue-PAS staining; cited from earlier work.
Data set [12] deals with PDE3. As to the kind of experiment: Inhibition of PDE3 activity, two-step procedure. Type of data set: biochemical. The conditions noted are these: homogenate of guinea pig lungs or hearts. As for the experimental part:
as §1

Data set [13] has as its system PDE1. As to the kind of experiment: Inhibition of PDE1 activity, two-step procedure. Type of data set: biochemical. The conditions noted are these: homogenate of guinea pig lungs or hearts. As for the experimental part: as §1

On to `O=C(Nc1c(Cl)cncc1Cl)C(=O)c1cn(Cc2ccc(F)cc2)c2ccc(O)cc12` [AWD 12-281, N-(3,5-dichloro-pyrid-4-yl)-[1-(4-fluorobenzyl)-5-hydroxy-indole-3-yl]-glyoxylic acid amide], for which, in [1], the PDE4H value is reported as 104 nM and the PDE4H/PDE4L ratio result was “approximately 11”. Also, the PDE4L value in data set [2] is listed as 9.7 nM. In addition, in data set [3], the “efficacy in clinical trials for asthma and COPD” value is reported as “lack of efficacy”.
As for `COc1cccc(Nc2c(C(N)=O)cnc3c(C)cc(S(=O)(=O)c4cccc(C(=O)N(C)C)c4)cc23)c1` [GSK256066], the “efficacy in trials in asthma” value in data set [3] (inhaled) is on record as “demonstrated efficacy”.
As for `CN1CC[C@]2(CCN3CCc4c(oc5ccccc45)[C@@H]3C2)N(C)C1=O.Cl` [MK-912], the “effect on xylazine/ketamine-induced anesthesia” value in [4] is given as “reverse xylazine/ketamine-induced anesthesia”. For the same compound, the vomiting result in data set [5] is reported as “trigger vomiting”.
With `CCCCOc1cc(CC2CNC(=O)N2)ccc1OC` (centres unmarked) [Ro 20-1724, 4-(3-butoxy-4-methoxybenzyl)-2-imidazolidinone, reference compound], the “mode of PDE4 inhibition” value in [6] (Lineweaver-Burk analysis, inhibitor 1~10 μM) is recorded as “competitively inhibited”. For the same compound, the Ki in data set [6] (Lineweaver-Burk analysis, inhibitor 1~10 μM, substrate cAMP, read-out: dissociation constant for inhibitory binding (Ki), PDE4) stood at 8.1 ± 2.4 µM. Further, the midpoint of inhibition in [6] (homogenate of guinea pig lungs or hearts), the IC50, lay at 4.3 ± 2.1 µM. For the same compound, the EC50 in [7] was determined as 0.087 ± 0.029 µM.
`COc1ccc(C2CNC(=O)C2)cc1OC1CCCC1` (centres unmarked) [Rolipram, rolipram]: the “effect on duration of xylazine/ketamine-induced anesthesia” value was “dose-dependently shortened” in [8] (0.01~1 μmol/kg s.c.); “reversed the anesthesia” in data set [8] (0.01~1 μmol/kg s.c., listed as rolipram); “significantly shortened” in [8] (0.1 and 1 μmol/kg s.c.). In data set [1], the PDE4H/PDE4L ratio is 0.01~0.001.
Take `CCOc1cc([C@@H](CS(C)(=O)=O)N2C(=O)c3cccc(NC(C)=O)c3C2=O)ccc1OC` [apremilast]: the “efficacy in severe plaque-type psoriasis” value in data set [3] (oral) was “effective”.
Regarding `COc1ccc([C@]2(C#N)CC[C@@H](C(=O)O)CC2)cc1OC1CCCC1` [cilomilast], in data set [1], the PDE4H value was 117.8 nM and the PDE4H/PDE4L ratio is 1. For the same compound, in data set [2], the PDE4L value is listed as 120 nM. Moreover, the “selectivity among PDE4 subtypes” value in [9] was “higher potency for PDE4D compared to PDE4A and PDE4B”. In data set [3] (COPD phase III study, 15 mg twice daily over 6 months), the “tolerability: diarrhea and nausea” value was “higher frequencies of diarrhea and nausea than a placebo”.
As to `Clc1cccc(Cl)c1N=C1NCCN1` [clonidine], the “effect on emesis induced by PDE4 inhibitors” value in [5] is on record as “prevented emesis”.
Turning to `COc1ccc(C2CC(=O)c3c(O)cc(O)cc3O2)cc1O` (centres unmarked) [hesperetin, 5,7,3'-trihydroxy-4'-methoxyflavanone], the “selectivity of PDE inhibition” value in [10] is “selectively inhibit PDE4 activity”.
On to `COc1ccc([C@@H]2CC(=O)c3c(O)cc(O[C@@H]4O[C@H](CO[C@@H]5O[C@@H](C)[C@H](O)[C@@H](O)[C@H]5O)[C@@H](O)[C@H](O)[C@H]4O)cc3O2)cc1O` [hesperidin], for which, in data set [11], the “effect on inflammatory cell infiltration and mucus hypersecretion in lung” value was “inhibit inflammatory cell infiltration and mucus hypersecretion”.
With `Cc1[nH]c(=O)c(C#N)cc1-c1ccncc1` [milrinone, reference compound], the IC50 in data set [12] came to 2.5 ± 1.6 µM.
With `O=C(Nc1c(Cl)cncc1Cl)c1ccc(OC(F)F)c(OCC2CC2)c1` [roflumilast], in [1], the PDE4H value is listed as 2.4 nM and the PDE4H/PDE4L ratio was 3. Also, in data set [2], the PDE4L value is given as 0.8 nM. In data set [9], the “selectivity among PDE4 subtypes” value is listed as “non-selective for these four PDE4 subtypes”. The “mean pre- and post-bronchodilator FEV1” value in data set [3] (patients with moderate-to-severe COPD, compared to placebo) is reported as “significantly improve”. For the same compound, the “nausea, diarrhea, weight loss, and headaches” value in data set [3] (patients with moderate-to-severe COPD) is listed as “more frequent”.
Compound `CCOC(=O)C1=C[C@]2(CC)CCCN3CCc4c(n1c1ccccc41)[C@@H]32` [vinpocetin, Vinpocetine, reference compound] gave an IC50 in [13] of 42.3 ± 5.8 µM.
